Assay results: patent publication US20090280106A1, “Pituitary adenylate cyclase acivating peptide (pacap) receptor (vpac2) agonists and their pharmacological methods of use” (Bayer Pharmaceuticals Corporation, priority 2005, published 2009)

Assays:
DPPIV [1] = molecular target: T1, DPPIV (Homo sapiens, UniProt P27487); conditions: cited from earlier work
DPPIV [2] = molecular target: T1, DPPIV; conditions: longer time points
Procedure: The formulations described in Example 4 are placed in constant stability chamber. Peptides are also analyzed for stability to degradation in solutions of DPPIV and in plasma. Samples are removed periodically for analysis by capillary electrophoresis, mass spectrometry, Edman degradation, ELISA, and assays of peptide activity, which are sensitive methods to detect degradation of peptide. The area of various peaks is summed and the area for peak of the parent peptide is divided by the total peak area. The quotient is the % purity. Since there are impurities present in the fresh peptide, the purity change is normalized by dividing the purity at different time point by the initial purity. For stability to DPPIV and plasma, peptides at 20 pmol/μl were incubated at 37° C. in the presence of 300 pM DPPIV in 100 mM HEPES, pH 7.4. At various timepoints, the reaction (2 μl aliquot) is terminated by addition of 1 μM DPPIV inhibitor and freezing. For MALDI mass spectrometric analysis, T=0 hr, 1 hr, 5 hr, and 24 hr timepoints are evaluated. The results are plotted as percent intact peptide or peptide derivative as compared to degradation products.

T1 sequence (P27487 whole entry, species assumed): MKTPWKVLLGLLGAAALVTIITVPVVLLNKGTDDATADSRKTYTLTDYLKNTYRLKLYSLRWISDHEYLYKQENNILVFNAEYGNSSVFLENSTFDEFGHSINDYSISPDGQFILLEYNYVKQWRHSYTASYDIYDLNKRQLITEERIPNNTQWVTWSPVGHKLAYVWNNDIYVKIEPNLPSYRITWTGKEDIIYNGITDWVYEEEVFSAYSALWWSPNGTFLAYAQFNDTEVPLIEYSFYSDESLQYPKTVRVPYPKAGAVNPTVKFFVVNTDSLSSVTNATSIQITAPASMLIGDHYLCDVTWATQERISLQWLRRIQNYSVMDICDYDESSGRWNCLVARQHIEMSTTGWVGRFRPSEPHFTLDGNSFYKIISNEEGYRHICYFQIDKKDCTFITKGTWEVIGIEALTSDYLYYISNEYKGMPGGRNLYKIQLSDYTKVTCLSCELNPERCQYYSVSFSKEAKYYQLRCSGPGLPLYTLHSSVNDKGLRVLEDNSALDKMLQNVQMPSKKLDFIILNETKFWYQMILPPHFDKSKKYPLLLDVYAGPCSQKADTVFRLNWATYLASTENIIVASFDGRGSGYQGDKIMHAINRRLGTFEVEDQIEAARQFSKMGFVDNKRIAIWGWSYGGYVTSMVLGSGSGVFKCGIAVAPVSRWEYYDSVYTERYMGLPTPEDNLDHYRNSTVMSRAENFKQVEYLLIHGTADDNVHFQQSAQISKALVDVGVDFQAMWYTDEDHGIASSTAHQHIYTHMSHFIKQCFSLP

Question: What does the source list for CC[C@H](C)[C@H](NC(=O)CNC(=O)[C@H](CC(=O)O)NC(=O)[C@H](CO)NC(=O)[C@@H](N)Cc1cnc[nH]1)C(=O)N[C@@H](Cc1ccccc1)C(=O)N[C@H](C(=O)N[C@@H](CC(=O)O)C(=O)N[C@@H](CO)C(=O)N[C@@H](Cc1ccc(O)cc1)C(=O)N[C@@H](CO)C(=O)N[C@@H](CCCNC(=N)N)C(=O)N[C@@H](Cc1ccc(O)cc1)C(=O)N[C@@H](CCCNC(=N)N)C(=O)N[C@@H](CCCCN)C(=O)N[C@@H](CCC(N)=O)C(=O)N[C@@H](CCSC)C(=O)N[C@@H](C)C(=O)N[C@H](C(=O)N[C@@H](CCCCN)C(=O)N[C@@H](CCCCN)C(=O)N[C@@H](Cc1ccc(O)cc1)C(=O)N[C@@H](CC(C)C)C(=O)N[C@@H](C)C(=O)N[C@@H](C)C(=O)N[C@H](C(=O)N[C@@H](CC(C)C)C(N)=O)C(C)C)C(C)C)[C@@H](C)O [PACAP27]?
Answer: cleavage by DPPIV as reported (Zhu, et al., J. Biol. Chem. 278: 22418-22423, 2003) (DPPIV [1]): resistant to cleavage; cleavage by DPPIV (DPPIV [2]): cleaved at longer time points

Question: With CC[C@H](C)[C@H](NC(=O)[C@H](CO)NC(=O)[C@H](CC(N)=O)NC(=O)[C@H](CC(C)C)NC(=O)[C@H](Cc1ccc(O)cc1)NC(=O)[C@H](CCCCN)NC(=O)[C@H](CCCCN)NC(=O)[C@@H](NC(=O)[C@H](C)NC(=O)[C@H](CCSC)NC(=O)[C@H](CCC(N)=O)NC(=O)[C@H](CCCCN)NC(=O)[C@H](CCCN=C(N)N)NC(=O)[C@H](CC(C)C)NC(=O)[C@H](CCCN=C(N)N)NC(=O)[C@@H](NC(=O)[C@H](Cc1ccc(O)cc1)NC(=O)[C@H](CC(N)=O)NC(=O)[C@H](CC(=O)O)NC(=O)[C@@H](NC(=O)[C@H](Cc1ccccc1)NC(=O)[C@@H](NC(=O)[C@H](C)NC(=O)[C@H](CC(=O)O)NC(=O)[C@H](CO)NC(=O)[C@@H](N)Cc1c[nH]cn1)C(C)C)[C@@H](C)O)[C@@H](C)O)C(C)C)C(=O)N[C@@H](CC(C)C)C(=O)N[C@@H](CC(N)=O)C(N)=O [VIP] as the molecule, how does the “cleavage by DPPIV as reported (Zhu, et al., J. Biol. Chem. 278: 22418-22423, 2003)” value (DPPIV [1]) read?
Answer: Its value is “resistant to cleavage”.

Question: What about the “cleavage by DPPIV” value (DPPIV [2]) of the same molecule?
Answer: Its value is “cleaved at longer time points”.
